From PMC5842406, “Antidyslipidemic potential of a novel farnesoid X receptor antagonist in a hamster model of dyslipidemia: Comparative studies of other nonstatin agents” (Pharmacology Research & Perspectives, 2018)

Columns and labels:
FXR [1] = biological target: T1, FXR (Homo sapiens, UniProt Q96RI1); experiment: luciferase reporter gene assay, agonist mode; format: cell-based; conditions: read-out: ED50 values
T1 construct: gene NR1H4
T1 sequence (Q96RI1 1-486): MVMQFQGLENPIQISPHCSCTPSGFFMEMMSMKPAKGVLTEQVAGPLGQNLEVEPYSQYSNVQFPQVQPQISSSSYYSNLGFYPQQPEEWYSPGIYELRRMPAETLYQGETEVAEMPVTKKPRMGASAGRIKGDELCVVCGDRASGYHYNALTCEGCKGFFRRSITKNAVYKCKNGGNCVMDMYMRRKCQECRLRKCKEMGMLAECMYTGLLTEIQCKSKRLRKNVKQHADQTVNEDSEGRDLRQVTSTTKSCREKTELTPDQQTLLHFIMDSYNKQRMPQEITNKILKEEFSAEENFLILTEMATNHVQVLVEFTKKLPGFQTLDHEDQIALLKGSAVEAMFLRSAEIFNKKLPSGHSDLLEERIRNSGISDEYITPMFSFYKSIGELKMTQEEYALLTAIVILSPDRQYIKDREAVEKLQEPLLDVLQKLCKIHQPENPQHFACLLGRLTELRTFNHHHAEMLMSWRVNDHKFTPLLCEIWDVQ
Text: luciferase reporter gene assay, agonist mode on FXR

FXR [2] = biological target: T1, FXR; experiment: luciferase reporter gene assay, antagonist mode; format: cell-based
Text: luciferase reporter gene assay, antagonist mode on FXR

RXRβ = tested on: T2, RXRβ; experiment: nuclear receptor panel reporter assay, antagonist mode; format: cell-based, Homo sapiens; conditions: control ligand not told for RXRβ
T2 construct: gene RXRB; not described
Text: nuclear receptor panel reporter assay, antagonist mode on RXRβ

PPARγ = biological target: T3, PPARγ (Homo sapiens, UniProt P37231); experiment: nuclear receptor panel assay, agonist mode; format: cell-based; conditions: read-out: ED50 values
T3 construct: gene PPARG
T3 sequence (P37231 1-505): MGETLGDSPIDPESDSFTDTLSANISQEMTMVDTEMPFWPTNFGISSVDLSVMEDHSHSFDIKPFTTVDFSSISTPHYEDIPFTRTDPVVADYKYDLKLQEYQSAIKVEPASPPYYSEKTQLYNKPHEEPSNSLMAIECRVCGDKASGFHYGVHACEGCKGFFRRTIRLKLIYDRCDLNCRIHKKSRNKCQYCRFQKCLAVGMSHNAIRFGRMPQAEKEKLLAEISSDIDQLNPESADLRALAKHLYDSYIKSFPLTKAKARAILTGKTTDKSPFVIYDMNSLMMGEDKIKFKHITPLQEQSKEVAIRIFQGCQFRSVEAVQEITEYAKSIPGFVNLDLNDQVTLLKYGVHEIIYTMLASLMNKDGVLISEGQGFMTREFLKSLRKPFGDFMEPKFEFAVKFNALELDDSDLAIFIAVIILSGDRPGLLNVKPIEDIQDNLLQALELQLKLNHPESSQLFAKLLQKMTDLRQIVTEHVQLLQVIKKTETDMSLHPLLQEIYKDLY
Text: nuclear receptor panel assay, agonist mode on PPARγ

EC50 (FXR [1]): > 10 µM
IC50 (FXR [2]): 0.0021 µM
IC50 (RXRβ): > 10 µM
EC50 (PPARγ): > 10 µM
Structure (SMILES): CC(C)(C)n1ncc(C(=O)Nc2ccc(Cl)c(CN3CCC(Oc4ccc(C(=O)O)cc4)CC3)c2)c1-c1ccc(F)cc1 [compound‐T1, 4‐({1‐[5‐({[1‐tert‐butyl‐5‐(4‐fluorophenyl)‐1H‐pyrazol‐4‐yl]carbonyl}amino)‐2‐chlorobenzyl]piperidin‐4‐yl}oxy)benzoic acid]
